Here are results for two compounds from article PMC6801562, “PIEZO1 and TRPV4, which Are Distinct Mechano-Sensors in the Osteoblastic MC3T3-E1 Cells, Modify Cell-Proliferation” (International Journal of Molecular Sciences, 2019).

As usually defined, the EC50 is the concentration that produces a half-maximal response. Higher therefore signals a less potent agent.

One experiment has as its target T1, TRPV4 (MC3T3-E1 cells) (Mus musculus, UniProt Q9EPK8).
T1 construct: native full-length channel in mouse osteoblastic MC3T3-E1 cells (Riken Cell Bank); identity supported by siTRPV4 knockdown
As to the kind of experiment: Fura-2 Ca2+ imaging, MC3T3-E1 cells, Hill fit. The experiment is classed as cell-based. As to conditions: agonist; native cells; pH 7.4, 2.2 mM Ca2+, n = 7.

The target in experiment [1] is T2, mouse PIEZO1 (mPIEZO1; HEK-mPiezo1) (Mus musculus, UniProt E2JF22).
T2 construct: mouse Piezo1 (Addgene) in pcDNA3.1 / pIRES2-AcGFP1, transiently transfected in HEK 293 cells; low endogenous human PIEZO1 in host
The experiment can be described thus: Fura-2 Ca2+ imaging, HEK cells, Hill fit. The class given is cell-based.

T2 sequence (E2JF22 whole entry): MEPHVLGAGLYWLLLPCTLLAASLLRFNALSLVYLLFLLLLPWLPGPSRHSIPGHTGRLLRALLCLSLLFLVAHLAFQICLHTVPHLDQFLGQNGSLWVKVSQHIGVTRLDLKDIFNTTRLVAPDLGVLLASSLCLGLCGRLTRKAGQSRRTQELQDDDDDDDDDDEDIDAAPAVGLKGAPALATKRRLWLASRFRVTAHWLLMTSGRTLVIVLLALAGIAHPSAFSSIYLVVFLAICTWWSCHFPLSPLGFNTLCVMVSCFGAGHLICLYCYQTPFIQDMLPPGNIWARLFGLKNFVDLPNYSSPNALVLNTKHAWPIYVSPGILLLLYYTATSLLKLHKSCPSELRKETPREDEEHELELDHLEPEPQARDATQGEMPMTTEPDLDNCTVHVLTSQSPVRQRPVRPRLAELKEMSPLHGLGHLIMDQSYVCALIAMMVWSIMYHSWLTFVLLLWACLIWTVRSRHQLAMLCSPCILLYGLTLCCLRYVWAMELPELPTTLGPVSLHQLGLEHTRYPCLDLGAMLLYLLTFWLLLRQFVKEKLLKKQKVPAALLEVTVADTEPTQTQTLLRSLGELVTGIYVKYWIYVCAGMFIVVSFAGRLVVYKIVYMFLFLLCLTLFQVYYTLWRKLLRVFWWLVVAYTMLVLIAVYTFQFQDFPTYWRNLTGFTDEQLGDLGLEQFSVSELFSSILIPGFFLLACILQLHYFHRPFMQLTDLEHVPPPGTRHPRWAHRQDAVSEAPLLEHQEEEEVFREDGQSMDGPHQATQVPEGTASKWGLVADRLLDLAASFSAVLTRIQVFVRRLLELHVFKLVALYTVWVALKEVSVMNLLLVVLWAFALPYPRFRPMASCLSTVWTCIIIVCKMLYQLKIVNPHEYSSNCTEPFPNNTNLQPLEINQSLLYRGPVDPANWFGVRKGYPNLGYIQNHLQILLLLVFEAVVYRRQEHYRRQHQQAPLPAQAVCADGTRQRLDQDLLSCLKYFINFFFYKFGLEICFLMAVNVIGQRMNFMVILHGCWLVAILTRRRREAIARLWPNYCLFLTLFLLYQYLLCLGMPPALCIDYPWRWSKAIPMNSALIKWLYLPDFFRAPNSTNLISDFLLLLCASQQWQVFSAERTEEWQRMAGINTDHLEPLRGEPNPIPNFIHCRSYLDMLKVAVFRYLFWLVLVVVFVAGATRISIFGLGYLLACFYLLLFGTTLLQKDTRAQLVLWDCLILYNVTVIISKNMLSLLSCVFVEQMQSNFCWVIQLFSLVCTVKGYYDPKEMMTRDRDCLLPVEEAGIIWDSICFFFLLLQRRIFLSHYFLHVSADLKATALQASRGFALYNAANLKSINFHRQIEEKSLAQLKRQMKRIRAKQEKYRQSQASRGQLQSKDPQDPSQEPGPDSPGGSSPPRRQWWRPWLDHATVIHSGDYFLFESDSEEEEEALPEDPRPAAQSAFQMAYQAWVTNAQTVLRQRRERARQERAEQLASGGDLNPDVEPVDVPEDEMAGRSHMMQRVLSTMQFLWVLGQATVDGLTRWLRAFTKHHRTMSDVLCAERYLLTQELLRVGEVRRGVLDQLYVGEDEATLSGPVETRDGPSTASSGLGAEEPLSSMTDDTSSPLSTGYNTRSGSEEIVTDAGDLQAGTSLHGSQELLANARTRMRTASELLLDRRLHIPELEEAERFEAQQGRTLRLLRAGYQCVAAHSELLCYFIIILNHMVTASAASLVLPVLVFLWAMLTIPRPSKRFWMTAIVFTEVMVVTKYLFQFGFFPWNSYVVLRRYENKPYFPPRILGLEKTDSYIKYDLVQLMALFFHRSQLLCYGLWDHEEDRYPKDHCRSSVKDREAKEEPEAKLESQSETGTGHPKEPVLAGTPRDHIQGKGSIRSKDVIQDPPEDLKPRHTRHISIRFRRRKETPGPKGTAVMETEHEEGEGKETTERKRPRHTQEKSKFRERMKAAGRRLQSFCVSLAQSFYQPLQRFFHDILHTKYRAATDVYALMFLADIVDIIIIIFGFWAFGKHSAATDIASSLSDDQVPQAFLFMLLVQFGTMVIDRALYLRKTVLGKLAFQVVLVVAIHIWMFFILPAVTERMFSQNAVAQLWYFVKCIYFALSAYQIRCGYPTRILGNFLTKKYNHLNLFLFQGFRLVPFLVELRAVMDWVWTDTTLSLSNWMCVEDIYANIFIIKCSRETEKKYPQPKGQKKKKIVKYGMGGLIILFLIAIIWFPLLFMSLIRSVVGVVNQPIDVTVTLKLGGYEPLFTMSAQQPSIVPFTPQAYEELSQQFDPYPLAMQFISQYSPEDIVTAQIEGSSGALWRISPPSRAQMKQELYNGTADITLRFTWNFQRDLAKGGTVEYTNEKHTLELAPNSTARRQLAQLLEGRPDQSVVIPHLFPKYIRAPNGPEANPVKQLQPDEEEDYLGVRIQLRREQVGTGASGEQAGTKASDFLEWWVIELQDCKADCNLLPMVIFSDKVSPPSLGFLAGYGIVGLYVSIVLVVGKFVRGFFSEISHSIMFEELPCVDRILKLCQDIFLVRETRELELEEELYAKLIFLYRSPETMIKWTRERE
T1 sequence (Q9EPK8 whole entry): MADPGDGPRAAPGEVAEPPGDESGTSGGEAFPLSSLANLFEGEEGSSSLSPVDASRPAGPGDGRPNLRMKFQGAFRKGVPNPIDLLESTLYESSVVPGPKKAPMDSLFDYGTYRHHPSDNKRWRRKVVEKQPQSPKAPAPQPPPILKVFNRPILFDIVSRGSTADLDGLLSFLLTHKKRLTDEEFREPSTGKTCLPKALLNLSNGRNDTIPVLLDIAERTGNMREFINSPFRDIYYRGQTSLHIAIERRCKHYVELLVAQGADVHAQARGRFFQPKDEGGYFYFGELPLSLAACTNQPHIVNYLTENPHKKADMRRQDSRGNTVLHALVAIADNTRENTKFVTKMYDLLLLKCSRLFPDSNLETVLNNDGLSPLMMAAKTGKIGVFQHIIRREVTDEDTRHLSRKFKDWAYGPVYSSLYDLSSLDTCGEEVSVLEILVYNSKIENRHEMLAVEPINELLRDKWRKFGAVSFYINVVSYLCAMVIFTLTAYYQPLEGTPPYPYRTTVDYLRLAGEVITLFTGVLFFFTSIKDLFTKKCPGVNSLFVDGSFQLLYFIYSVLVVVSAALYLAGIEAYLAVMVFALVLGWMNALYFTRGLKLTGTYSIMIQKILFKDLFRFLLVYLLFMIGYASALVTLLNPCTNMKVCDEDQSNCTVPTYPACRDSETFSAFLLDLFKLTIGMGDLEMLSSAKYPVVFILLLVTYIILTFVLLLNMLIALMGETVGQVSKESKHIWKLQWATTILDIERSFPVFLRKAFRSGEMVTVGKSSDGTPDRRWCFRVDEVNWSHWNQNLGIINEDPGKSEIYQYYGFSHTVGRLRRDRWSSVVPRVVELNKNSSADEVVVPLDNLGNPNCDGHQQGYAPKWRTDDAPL

Compound `CC(C)C[C@H](NC(=O)c1cc2ccccc2s1)C(=O)N1CCN(C(=O)[C@H](CO)NS(=O)(=O)c2ccc(Cl)cc2Cl)CC1` [GSK1016790A] registered a concentration giving a half-maximal response (EC50) at TRPV4 (MC3T3-E1 cells) of 2.25 ± 0.45 nM.

Take `Clc1cccc(Cl)c1CSc1nnc(-c2cnccn2)s1` [Yoda1, 2-[5-[[(2,6-Dichlorophenyl)methyl]thio]-1,3,4-thiadiazol-2-yl]-pyrazine]: in experiment [1], the EC50 was 380 ± 70 nM.
